# Measured values as given in patent US20170306409A1, “CANCER PATIENT SELECTION FOR ADMINISTRATION OF WNT SIGNALING INHIBITORS USING RNF43 MUTATION STATUS” (NOVARTIS AG, priority 2012, published 2017).
# Assays:
# Format in all cases: cell-based, human
# [1] = system: CFPAC-1; test: foci formation assay; conditions: 1 μM LGK974
# Description: (§1) To assay foci formation, 6,000˜12,000 cells of indicated cell lines were seeded in 6 well tissue culture plate in 2 ml growth media. After overnight culture for cell attachment, media was replaced with fresh growth media containing 1 μM LGK974 in the absence and presence of recombinant Wnt3a. For DOX-inducible β-catenin shRNA experiment, cells were treated 5 ng/ml doxycycline. When cell colonies reached desirable size, cells were fixed with 4% formalin in PBS and stained with crystal violet solution. After a few washes, plates were dried and imaged.
# (§2) Identification of pancreatic cancer lines containing inactivation mutation of RNF43. Discovery of LGK974, a potent and selective inhibitor of Porcupine, offered us a unique chemical tool to systemically examine Wnt dependency in a large panel of cancer cell lines. We tested LGK974 in a large panel of pancreatic cancer cell lines using foci formation assay. Foci formation assay was utilized because it is more sensitive than routine growth assays such as CellTiter-Glo, and it is less affected by the different growth rates of various cell lines.
# [2] = system: KCl-MOH1; test: foci formation assay; conditions: 1 μM LGK974
# Description: as §1, §2
# [3] = system: KLM1; test: foci formation assay; conditions: 1 μM LGK974
# Description: as §1, §2
# [4] = system: KP-1NL; test: foci formation assay; conditions: 1 μM LGK974
# Description: as §1, §2
# [5] = system: Panc08.13; test: foci formation assay; conditions: 1 μM LGK974
# Description: as §1, §2
# [6] = system: SU86.86; test: foci formation assay; conditions: 1 μM LGK974
# Description: as §1, §2
# [7] = system: SUIT-2; test: foci formation assay; conditions: 1 μM LGK974
# Description: as §1, §2
# [8] = system: SW1990; test: foci formation assay; conditions: 1 μM LGK974
# Description: as §1, §2
# [9] = system: RNF43 mRNA, YAPC cells; test: quantitative RT-PCR gene expression analysis; conditions: 1 μM of LGK974
# Description: FIG. 4(a) is a bar graph showing that the depletion of β-catenin decreases mRNA level of AXIN2 and RNF43. Cells were treated with siRNA, and relative mRNA levels of indicated genes were analyzed by quantitative RT-PCR. […] YAPC cells were treated with 3 μM of IWP2 or 1 μM of LGK974, and subjected to gene expression analysis by quantitative RT-PCR.
# (§3) For reverse transcription and quantitative PCR (qPCR), total RNA was extracted from cells or tumors using the RNeasy Plus Mini Kit (Qiagen). 1 μg of RNA were reverse transcribed with Taqman Reverse Transcription Reagents (Applied Biosystems) according to the manufacturer's instruction. Quantitative PCR was performed in 12 μl reactions consisting of 0.6 μl of 20× Taqman probe and PCR primer mix, 6 μl 2× Taqman FAST Advanced Master Mix (Applied Biosystems), and 5.4 μl diluted cDNA template. The thermocycling conditions utilized were 20 seconds at 95° C., followed by 40 cycles of 1 second at 95° C. and 20 seconds at 60° C. All experiments were performed in quadruplicates. Gene expression analysis was performed using the comparative ΔΔCT method and normalized with the housekeeping gene GUSB or 18S. The Taqman probes were purchased from Applied Biosystems.
# Consistent with this observation, treatment of Porcupine inhibitor IWP2 or LGK974 increased the cell surface level of Frizzled and decreased the mRNA levels of AXIN2 and RNF43. See, FIG. 4(b). […]
# [10] = system: RNF43 mutant cells; test: foci formation assay with recombinant Wnt3a; conditions: 1 μM of LGK974 together with recombinant Wnt3a
# From the text: (§4) We next characterized Wnt-dependency in pancreatic cancer cell lines.
# [11] = system: RNF43 mutant cell lines; test: immunoblot and qPCR assays
# Description: as §3, §4
# (§5) For immunoblotting, total cell lysates were prepared by lysing cells using RIPA buffer (50 mM Tris-HCl, pH 7.4, 150 mM NaCl, 1% NP-40, 0.5% sodium deoxycholate, 0.1% SDS, 1 mM EDTA) supplemented with protease inhibitors and phosphatase inhibitors, followed by centrifugation at 14,000 rpm for 10 min at 4° C. For cytosolic β-catenin extraction, cell pellets were resuspended in hypotonic buffer (10 mM Tris-HCl, pH 7.5 and 10 mM KCl, supplemented with protease/phosphatase inhibitors) and lysed by three freeze-thaw cycles. Equal amount of proteins were resolved by SDS-PAGE, transferred to nitrocellulose membranes, and incubated with primary antibodies for overnight at 4° C. Secondary antibodies conjugated with either HRP or infrared dyes were used for signal visualization by ECL film or LI-COR Odyssey scanner, respectively.
# [12] = system: RNF43 wild-type cell lines; test: immunoblot and qPCR assays
# Description: as §3, §4, §5
# [13] = system: HPAFII; test: soft agar assay; conditions: 1 μM LGK974
# Description: (§6) Further, LGK974 induced the expression of differentiation marker MUC2, MUC5A/C in RNF43 mutant cells. LGK974 blocked EDU incorporation in RNF43 mutant cell lines, so Wnt inhibition in these cells leads to cell cycle arrest. LGK974-induced growth inhibition and cellular differentiation of RNF43 mutant cells are also obvious using Ki67 staining (anti-Ki67 (SP6) from Vector Laboratories, Burlingame, Calif., USA 94010) and Alcian Blue staining.
# (§7) For soft agar assay, cells were suspended in 250 μl of 0.3% low melting agarose (Lonza) in DMEM containing 10% FBS, and plated onto 250 μl of solidified 0.8% agarose containing DMEM in 48-well culture plates at a density of 5,000-10,000 cells per well. 250 μl of growth medium were added on top of the cells after plate was cooled at Rt for 30 minutes. The plate was then incubated at 37° C. in a humidified atmosphere containing 5% CO2. The cells were treated with fresh growth medium containing DMSO or 1 μM LGK974 every 3-4 days. When colonies reached desirable size, photographs were taken and colonies were stained with AlamarBlue (from Invitrogen, Life Technologies, Grand Island, N.Y., USA 14072) according to the manufacturer's instruction. These experiments were repeated three times, and at least four wells were replicated each time for each condition.
# [14] = system: PK1; test: soft agar assay; conditions: 1 μM LGK974
# Description: as §6, §7
# [15] = system: PaTu-8988S; test: soft agar assay; conditions: 1 μM LGK974
# Description: as §6, §7
smiles,measurement,setting,value
"Cc1cc(-c2ncc(CC(=O)Nc3ccc(-c4cnccn4)cn3)cc2C)ccn1 [LGK974, 2-[5-methyl-6-(2-methylpyridin-4-yl)pyridin-3-yl]-N-[5-(pyrazin-2-yl)pyridin-2-yl]acetamide]",Growth inhibition in foci formation assay,[1],No
same,Growth inhibition in foci formation assay,[2],No
same,Growth inhibition in foci formation assay,[3],No
same,Growth inhibition in foci formation assay,[4],No
same,Growth inhibition in foci formation assay,[5],No
same,Growth inhibition in foci formation assay,[6],No
same,Growth inhibition in foci formation assay,[7],No
same,Growth inhibition in foci formation assay,[8],No
same,mRNA level of RNF43,[9],decreased
same,growth inhibitory effect with exogenous Wnt3a,[10],rescued
same,cytosolic β-catenin,[11]; RNF43 mutant cell lines,decreased
same,expression of MYC,[11]; RNF43 mutant cell lines,decreased
same,expression of cyclin dependent kinase inhibitor p21,[11]; RNF43 mutant cell lines,increased
same,expression of β-catenin target gene AXIN2,[11]; RNF43 mutant cell lines,decreased
same,"expression of differentiation marker MUC2, MUC5A/C",[11]; RNF43 mutant cells,induced
same,cytosolic β-catenin,[12],decreased
same,expression of MYC,[12],not
same,expression of cyclin dependent kinase inhibitor p21,[12],not
same,expression of β-catenin target gene AXIN2,[12],decreased
same,proliferation in soft agar assay,[13],strongly inhibited
same,proliferation in soft agar assay,[14],not
same,proliferation in soft agar assay,[15],strongly inhibited
